From patent US6379879B2, “Color photographic silver halide material” (Agfa-Gevaert, priority 2000, dated 2002)

Assay: pKa of oil formers by titration with tetrabutylammonium hydroxide
Type: physicochemical
Settings: titration with TBAH in dimethyl sulfoxide/water (100:0.25)

Substance: tricresyl phosphate [TCP]
- pKa of oil former: >20
